According to patent US20230201487A1, “NEBULIZER DEVICE OPTIMIZATION FOR IMPROVED AEROSOL PARAMETERS AND USES THEREOF” (Avalyn Pharma Inc., priority 2020, published 2023):
Marks after values point to notes of the source that are not given here.

Key:
Assay type in all cases: physicochemical
[1] = Respirable aerosol droplet output rate by laser diffraction and gravimetric total output rate, simulated breathing, eFlow nebulizer; settings: for Output rate Benefit, Combined Effect (Vented + XL): vented XL vs. non-vented L
Experimental: As an initial analysis, emitted aerosol saline and pirfenidone aqueous solution formulation droplet size as a function of time was measured using a Helos, Sympatec laser under partially simulated breathing conditions (adult breathing pattern, 500 mL tidal volume, 15 breaths/min with a 1:1 inhalation: exhalation ratio) using a Compas 2 breath simulator. Briefly, twelve investigational PART eFlow® nebulizers (with 6 L and 6 XL aerosol mixing chambers) with a single set of 6 (six) aerosol head class 35 (6 total heads; Table 1) were used in both L (about 49 cc volume aerosol mixing chamber) and XL (about 98 cc volume aerosol mixing chamber) configurations and tested in triplicate with the 8 mL of pirfenidone aqueous solution medicine cup reservoir under atmospheric conditions (vented) and permitting generation of negative pressure (non-vented). The following exemplary replicates were performed: A. Head 1/L/vented, B. Head 1/L/non-vented, C. Head 1/XL/vented, D. Head 1/XL/non-vented, and repeated in the following order: A, B, C, D, A, B, C, D, A, B, C, D. Results are shown in Table 2.
In this analysis, respirable aerosol droplet output rate of saline and pirfenidone formulation was determined by multiplying the respirable fraction (RF; percent emitted aerosol droplets with a diameter less than 5 microns at 20 second increments) by total output rate (TOR; calculated by dividing the total nebulizer weight loss by nebulization duration). Saline was made as 150 mM sodium chloride in water, while the pirfenidone formulation was 12.5 mg/mL pirfenidone in 5 mM citrate buffer, pH 6.0, 150 mM sodium chloride and 0.75 mM sodium saccharin in water. Duration to nebulize 8 mL saline was 8.6 min, 12.6 min, 8.5 min and 12.0 min for vented “L”, non-vented “L”, vented “XL” and non-vented “XL”, respectively. Duration to nebulize 8 mL AP01 was 8.4 min, 12.3 min, 8.3 min and 12.4 min for vented “L”, non-vented “L”, vented “XL” and non-vented “XL”, respectively.

[2] = Aerosol head/assembled device correlation study (TOR, VMD, GSD, nebulization time), 53 aerosol heads; settings: Vented, XL Device
Experimental: To establish an aerosol generator (head) specification meeting the desired delivery of 8 mL aqueous pirfenidone solution in the assembled nebulizer device 1 not exceeding 16 minute delivery time (or an 0.5 mL/min output rate), a correlation study between the head-only performance with 0.9% NaCl (saline) and the assembled nebulizer device 1 (vented, XL configuration) performance with aqueous pirfenidone was conducted. Using heads only, the aerosol characteristics total output rate (TOR), volumetric median diameter (VMD) and geometric standard deviation (GSD) were performed under constant negative pressure (−250 mbar; relative to atmospheric pressure) and under ambient, atmospheric pressure conditions (0 mbar; relative to atmospheric pressure).
These heads were either tested alone using a special apparatus (saline −250 mbar or 0 mbar) or in assembled devices (saline and aqueous pirfenidone; 8 mL vented medicine cup reservoir 3 and XL aerosol mixing chamber 8 configuration).

[3] = Respirable delivered dose during breath simulation, inspiratory filters, HPLC; set-up: Slope of respirable delivered dose: unit not given here; settings: for Total respirable delivered pirfenidone dose over 8 minutes: 8 mL of 12.5 mg/mL
Experimental: For a more clinically relevant comparison, in a second analysis, of aerosol delivery parameters for pirfenidone in solution, the respirable delivered dose (RDD; amount of deposited pirfenidone from aerosol droplets less than 5 microns in diameter) was measured during breath simulation (adult breathing pattern, 500 mL tidal volume, 15 breaths/min with a 1:1 inhalation: exhalation ratio) using a Compas 2 breath simulator was used as follows. Briefly, twelve investigational eFlow® (with 6 L and 6 XL aerosol mixing chambers) with a single set of 6 (six) aerosol head class 35 (6 total heads; Table 1) were used in both (about 49 cc volume) and XL (about 98 cc volume) aerosol mixing chamber configurations and tested in duplicate with the 8 mL medicine cup reservoir under atmospheric conditions (vented) and permitting generation of negative pressure (non-vented) during nebulization. An 8 mL dose (aqueous pirfenidone solution at concentration of 12.5 mg/ml) was loaded into the medicine cup reservoir and nebulization initiated. After 2, 4, 6 and 8 min of nebulization, inspiratory filters were collected and extracted for pirfenidone quantitation using HPLC analysis. A final filter was used after 8 min to collect remaining dose. The following exemplary replicates were performed: A. Head 1/L/vented, B. Head 1/L/non-vented, C. Head 1/XL/vented, D. Head 1/XL/non-vented, and repeated in the following order: A, B, C, D, A, B, C, D. Results are shown in Table 4.

Cc1ccc(=O)n(-c2ccccc2)c1 [pirfenidone, 5-methyl-1-phenyl-2-(1H)-pyridone]
Benefit of aerosol mixing chamber volume on respirable aerosol droplet output rate ([1]; all device configurations regardless of medicine cup pressure): −2 to −5.5% | Output rate Benefit, Maintaining Atmospheric Pressure (Vented) ([1]; vented L vs. non-vented L, 0-2 min): about +19.4% | Output rate Benefit, Maintaining Atmospheric Pressure (Vented) ([1]; vented L vs. non-vented L, 6-8 min): about +17.5% | Output rate Benefit, Combined Effect (Vented + XL) ([1]; 0-2 min): about +17% | Output rate Benefit, Combined Effect (Vented + XL) ([1]; 6-8 min): ~+12.6% | Output rate Benefit, Maintaining Atmospheric Pressure (Vented) ([1]; vented XL vs. non-vented XL, 0-2 min): about +23.8% | Output rate Benefit, Maintaining Atmospheric Pressure (Vented) ([1]; vented XL vs. non-vented XL, 6-8 min): about +17% | Total Output Rate (TOR), Average [2]: 0.782 g/min | Total Output Rate (TOR), Max [2]: 1.049 g/min | Total Output Rate (TOR), Min [2]: 0.382 g/min | Theoretical total delivery rate ([3]; assuming a fifty percent respirable delivered dose, 12.5 mg/mL): 6.25 mg per minute | Slope of respirable delivered dose ([3]; non-vented (NV), L aerosol mixing chamber): −0.16 | Respirable Delivered Dose ([3]; non-vented (NV), L aerosol mixing chamber, 0-2 min): 5.75 mg/time increment | Respirable Delivered Dose ([3]; non-vented (NV), L aerosol mixing chamber, 2-4 min): 5.71 mg/time increment | Respirable Delivered Dose ([3]; non-vented (NV), L aerosol mixing chamber, 4-6 min): 5.49 mg/time increment | Respirable Delivered Dose ([3]; non-vented (NV), L aerosol mixing chamber, 6-8 min): 5.27 mg/time increment | Slope of respirable delivered dose ([3]; non-vented (NV), XL aerosol mixing chamber): −0.20 | Respirable Delivered Dose ([3]; non-vented (NV), XL aerosol mixing chamber, 0-2 min): 6.50 mg/time increment | Respirable Delivered Dose ([3]; non-vented (NV), XL aerosol mixing chamber, 2-4 min): 6.44 mg/time increment | Respirable Delivered Dose ([3]; non-vented (NV), XL aerosol mixing chamber, 4-6 min): 6.37 mg/time increment | Respirable Delivered Dose ([3]; non-vented (NV), XL aerosol mixing chamber, 6-8 min): 5.87 mg/time increment | RDD Benefit, Increased Aerosol mixing chamber (XL) ([3]; non-vented L vs. non-vented XL, 0-2 min): 13.15^g % | RDD Benefit, Increased Aerosol mixing chamber (XL) ([3]; non-vented L vs. non-vented XL, 6-8 min): 11.28^g % | Respirable delivered dose per minute ([3]; non-vented L, 12.5 mg/mL): 2.78 mg/min | Total respirable delivered pirfenidone dose over 8 minutes ([3]; non-vented L): 22.22 mg | Slope of respirable delivered dose ([3]; vented (V), L aerosol mixing chamber): 0.12 | Respirable Delivered Dose ([3]; vented (V), L aerosol mixing chamber, 0-2 min, 8 mL of 12.5 mg/ml): 5.97 mg/time increment | Respirable Delivered Dose ([3]; vented (V), L aerosol mixing chamber, 2-4 min): 6.16 mg/time increment | Respirable Delivered Dose ([3]; vented (V), L aerosol mixing chamber, 4-6 min): 6.33 mg/time increment | Respirable Delivered Dose ([3]; vented (V), L aerosol mixing chamber, 6-8 min): 6.32 mg/time increment | Slope of respirable delivered dose ([3]; vented (V), XL aerosol mixing chamber): 0.13 | Respirable Delivered Dose ([3]; vented (V), XL aerosol mixing chamber, 0-2 min): 6.65 mg/time increment | Respirable Delivered Dose ([3]; vented (V), XL aerosol mixing chamber, 2-4 min): 7.07 mg/time increment | Respirable Delivered Dose ([3]; vented (V), XL aerosol mixing chamber, 4-6 min): 7.01 mg/time increment | Respirable Delivered Dose ([3]; vented (V), XL aerosol mixing chamber, 6-8 min): 7.11 mg/time increment | RDD Benefit, Increased Aerosol mixing chamber (XL) ([3]; vented L vs. vented XL, 0-2 min): 11.35^e % | RDD Benefit, Increased Aerosol mixing chamber (XL) ([3]; vented L vs. vented XL, 6-8 min): 12.49^e % | Respirable delivered dose per minute ([3]; vented XL, 12.5 mg/mL): 3.48 mg/min | Total respirable delivered pirfenidone dose over 8 minutes ([3]; vented XL): 27.84 mg
